Earlier results, collected in paper PMC7855261 (Cell chemical biology, 2020).

Test system: r(CUG)12-MBNL1 complex
Details: ref Parkesh et al., 2012; Rzuczek et al., 2015

Nc1ccc2nc(-c3ccc(-c4nc5ccc(N)cc5[nH]4)cc3)[nH]c2c1 [Compound 3, 2,2′-p-Phenylene-bis(5-aminobenzimidazole)]
Bind r(CUG)^exp and inhibit formation of the r(CUG)^exp-MBNL1 complex: inhibit formation of the r(CUG)^exp-MBNL1 complex
